# Measurements reported in patent publication US9661844B2, “Pesticide composition delivery vehicles” (Dow AgroSciences LLC, priority 2012, dated 2017).
# What was measured:
# nematode = assay: Capsule field trial Location 2, nematode count; type: in vivo; settings: 3.5 Kg/Ha granules
# Excerpt: (§1) Field trials for the gel capsules of Example I were established under commercial conditions in banana production areas of Central America. Bananas were transplanted using commercial procedures typical of the area. Gel capsules according to Example I were used as a post-plant treatment. A commercial standard was also included as a comparison in each test. Treatments and use rates for both field trials are included in the Tables 3 and 4 below. Location 1 included four replications for each treatment and location 2 included three replications.
# (§2) Gel caps were applied in the area immediately surrounding the base of the banana plant. Holes were made to a depth of 15-20 cm using a rod inserted into the soil. Gel caps were applied into the holes by hand and soil was reapplied into the holes to cover the gel caps. Commercial standards were formulated as granules and applied around the base of the plant without incorporation.
# Several parameters were measured at intervals following application of the pesticide. Plant height and plant trunk diameter were evaluated over time at intervals of approximately two, four and six weeks after application of the pesticide. Root weight, percent functional roots and nematode counts were taken at intervals of 45 and 60 days after application (DAA). Plant height and trunk diameter were evaluated as direct measurements and are recorded in units of centimeters. […]
# banana plant = assay: Capsule field trial Location 2, banana growth parameters; type: in vivo; settings: 3.5 Kg/Ha granules
# Excerpt: as §1, §2
# Several parameters were measured at intervals following application of the pesticide. Plant height and plant trunk diameter were evaluated over time at intervals of approximately two, four and six weeks after application of the pesticide. Root weight, percent functional roots and nematode counts were taken at intervals of 45 and 60 days after application (DAA). Plant height and trunk diameter were evaluated as direct measurements and are recorded in units of centimeters. Root weight, percent functional roots and nematode counts were obtained by separate soil samples which were taken and returned to the lab for analysis. Roots were separated from the soil and weighed. A separate, visual estimate was made to determine the percent of these roots that were healthy and functional. Nematode counts were made by extracting them from the roots and soil and then estimating the total by counting the actual number in subsamples of the extracted materials.
compound,measurement,setting,value
"CCOP(=O)(SC(C)CC)SC(C)CC (stereo not drawn) [cadusaphos, cadusafos]",Nematode count,nematode; 45 DAA,"11,200a"
same,Nematode count,nematode; 60 DAA,"23,733a"
same,Plant Height,banana plant; 15 DAA,143 cm
same,Stem diameter,banana plant; 15 DAA,30 cm
same,Plant Height,banana plant; 29 DAA,156 cm
same,Stem diameter,banana plant; 29 DAA,33 cm
same,Plant Height,banana plant; 43 DAA,169 cm
same,Stem diameter,banana plant; 43 DAA,36 cm
same,% Functional roots,banana plant; 45 DAA,82%
same,Root weight,banana plant; 45 DAA,44 gms
same,% Functional roots,banana plant; 60 DAA,86%
same,Root weight,banana plant; 60 DAA,53 gms
